In patent US5208243A, “5-isoquinolinesulfonamides” (Adir et Compagnie, priority 1991, dated 1993):

How the values were obtained:
rat aortas = assay: Contraction of rat aortas induced by potassium depolarization (hyperpotassium medium); parameters: species or system WISTAR rat; conditions: read-out: IC50 (concentration inhibiting by 50% the contraction of rat aortas induced by potassium depolarization)
From the text: The rings are linked to a STATHAM tension sensor (UC2-GOULD).

rabbit aorta [1] = assay: Contraction of rabbit aorta induced by noradrenaline in a normal physiological medium; parameters: species or system New Zealand rabbit; conditions: Oryctolagus cuniculus, noradrenaline 10^-6 M, read-out: IC50, noradrenaline stimulus
Procedure: (§1) Studies are carried out on rings, 3 mm in length, […] The vascular rings are immersed in a normal physiological solution or in a physiological solution lacking calcium (+0.2 mM of the chelating agent EGTA), which is thermostatically regulated at 37° C. and aerated with a 95% O2 +5% CO2 mixture. The rings are linked to a STATHAM tension sensor (UC2-GOULD). The optimal tension for each vessel is applied and a stabilization period of 90 min is observed for the preparations. a) Antivasoconstrictive activity of the compounds of the invention in a physiological medium.

rabbit mesenteric artery = assay: Contraction of rabbit mesenteric artery induced by electrical stimulation; parameters: species or system New Zealand rabbit; conditions: Oryctolagus cuniculus, normal physiological medium
Procedure: as §1

rabbit aorta [2] = assay: Contraction of rabbit aorta induced by phorbol ester in a normal physiological medium; parameters: species or system New Zealand rabbit; conditions: Oryctolagus cuniculus, TPA 10^-5 M, read-out: IC50, phorbol ester stimulus
Procedure: as §1

rabbit aorta [3] = assay: Vascular contraction of rabbit aorta induced by PDGF; parameters: species or system New Zealand rabbit; conditions: Oryctolagus cuniculus, 10^-5 M, preincubated 15 minutes
Procedure: as §1

pig coronary artery = assay: Vascular contraction of pig coronary artery induced by acetylcholine; conditions: Sus scrofa, 10^-5 M, preincubated 15 minutes
Procedure: Studies are carried out on rings, 3 mm in length, - or of coronary arteries from pigs anesthetized with nesdonal (8 mg/kg intravenously). The vascular rings are immersed in a normal physiological solution or in a physiological solution lacking calcium (+0.2 mM of the chelating agent EGTA), which is thermostatically regulated at 37° C. and aerated with a 95% O2 +5% CO2 mixture. The rings are linked to a STATHAM tension sensor (UC2-GOULD). The optimal tension for each vessel is applied and a stabilization period of 90 min is observed for the preparations. a) Antivasoconstrictive activity of the compounds of the invention in a physiological medium.

rabbit aortas = assay: Contraction of rabbit aortas induced by noradrenaline in a medium without calcium; parameters: species or system New Zealand rabbit; conditions: Oryctolagus cuniculus, 0.5 h, rabbit aorta, incubated 30 minutes
Procedure: as §1, with “b)” for “a)”, “medium without calcium.” for “physiological medium.”

rabbit aorta [4] = assay: Contraction of rabbit aorta induced by angiotensin II in a medium without calcium; parameters: species or system New Zealand rabbit; conditions: Oryctolagus cuniculus, 10^-5 M, medium lacking calcium
Procedure: as §1, with “b)” for “a)”, “medium without calcium.” for “physiological medium.”

rabbit aorta [5] = assay: Contraction of rabbit aorta induced by endothelin in a medium without calcium; parameters: species or system New Zealand rabbit; conditions: Oryctolagus cuniculus, 10^-5 M, medium lacking calcium
Procedure: as §1, with “b)” for “a)”, “medium without calcium.” for “physiological medium.”

rabbit aorta [6] = assay: Contraction of rabbit aorta induced by phorbol ester in a medium without calcium; parameters: species or system New Zealand rabbit; conditions: Oryctolagus cuniculus, 10^-5 M, medium lacking calcium
Procedure: as §1, with “b)” for “a)”, “medium without calcium.” for “physiological medium.”

Rabbit iliac artery = assay: Contraction of rabbit iliac artery induced by caffeine in a medium without calcium; parameters: species or system New Zealand rabbit; conditions: Oryctolagus cuniculus, 10^-5 M, medium lacking calcium
Procedure: as §1, with “b)” for “a)”, “medium without calcium.” for “physiological medium.”

isolated heart = assay: Isolated heart subjected to hypoxia-reoxygenation; parameters: species or system WISTAR rat; conditions: after 30 minutes of reoxygenation
Procedure: The heart is removed from WISTAR rats (325-375 g). The heart is rapidly perfused according to the technique of LANGENDORFF at a constant pressure of 101.310^2 Pa and electrically stimulated at 5 Hz. Isovolumetric contractions are recorded by means of a polyethylene ballonet linked to a pressure sensor (P23-GOULD) introduced into the left ventricle and inflated so as to obtain a diastolic pressure of between 6.710^2 and 13.310^2 Pa. c) Protective effect of the compounds of the invention on an isolated heart subjected to hypoxia-reoxygenation. An experimental procedure similar to that described in the preceding test is followed, the ischemia-reperfusion stage being replaced by a 60 min hypoxia produced by the administration of a 95% N2 +5% CO2 gaseous mixture during this period and followed by a 30 min reoxygenation. The test compounds are incubated for 15 min before and during the period of hypoxia.

[7] = test system: vasopressor effect of phenylephrine; assay: Cardiovascular reactivity to phenylephrine in wakeful rats, oral administration; type: in vivo, WISTAR rat
Procedure: After a 30 to 60 min period of stabilization of wakeful WISTAR rats, a range of concentrations of phenylephrine (between 0 and 16 μg/kg) is injected intravenously.
Reading of the mean blood pressure and heart rate is carried out at the point where the pressor effect reaches its maximum. After a washing time of at least 2 hours, the test compound is administered intravenously (10 mg/kg) followed 15 minutes later by a new range of phenylephrine.
b) Effects of the compounds of the invention, administered orally, on the cardiovascular reactivity of phenylephrine.
The procedure is carried out as above but the intravenous administration of the test compounds is replaced by oral administration (5, 10 and 20 mg/kg) of the test compound. The phenylephrine range is repeated 0.5, 1, 2, 3, 4, 5 and 6 hours after administration of the compound.

reperfusion arrhythmias = assay: Reperfusion arrhythmias after coronary ligature in rats; type: in vivo, WISTAR rat; conditions: 2 mg/kg intravenous
Procedure: C/ Action of the compounds of the invention on reperfusion arrhythmias.
A thoracotomy and a coronary ligature are carried out on WISTAR rats. After stabilization for 10 min, 2 mg/kg of the test compound are administered intravenously. The blood pressure, the heart rate and the electrocardiogram are recorded. Five minutes after injecting the product, the coronary ligature is tightened.
After 5 minutes of stenosis, the ligature is removed and the electrocardiogram as well as the blood pressure are recorded for 10 consecutive minutes. The delay in the appearance of the various rhythm disorders as well as the mortality are measured.

CN(CC1CCN(CCCOc2ccc(F)cc2)CC1)S(=O)(=O)c1cccc2cnccc12.Cl.Cl [Example 17, N-Methyl-N-{[1-[3-(p-fluorophenoxy)propyl]-4-piperidyl]methyl}-5-isoquinolinesulfonamide dihydrochloride]
IC50 (rat aortas): 1500 nM
IC50 (rabbit aorta [1]): 1500 nM
IC50 (rabbit mesenteric artery): 100 nM
IC50 (rabbit aorta [2]): 21000 nM
inhibition at 10 µM (rabbit aorta [3]): 30%
inhibition at 10 µM (pig coronary artery): 64%
inhibition at 1 µM (rabbit aortas; compound 10^-6 M): 90%
inhibition at 0.1 µM (rabbit aortas; compound 10^-7 M): 40%
inhibition at 10 µM (rabbit aorta [4]): 21%
inhibition at 10 µM (rabbit aorta [5]): 67%
inhibition at 10 µM (rabbit aorta [6]): 35%
inhibition at 10 µM (Rabbit iliac artery): 63%
increase of the contraction relative to the control hearts (isolated heart): more than 100%
reduction of the vasopressor effect of phenylephrine ([7]; 20 mg/kg oral, maximum after 2 hours): 60%
time of appearance of the inhibitory activity ([7]; after oral administration): 30 min
time of maximum inhibitory activity ([7]; after oral administration, 20 mg/kg): 2 h
duration for which the inhibitory activity remains stable ([7]; oral): 6 h
delay in the appearance of ventricular extrasystoles and tachycardias (reperfusion arrhythmias): very substantially delays the appearance of ventricular extrasystoles and tachycardias
prevention of the appearance of ventricular fibrillations (reperfusion arrhythmias): 100%
mortality rate (reperfusion arrhythmias; control 4 deaths out of 9): zero
